From paper PMC7278776, “Multidrug Resistance Modulation Activity of Silybin Derivatives and Their Anti-Inflammatory Potential” (Antioxidants, 2020)
Counter-ions that a name gives are not always drawn. One block for each compound: values may come before it.

Tests used:
A2780/DOX [1] = experiment: Viability of A2780/DOX cells (resazurin)
Procedure: To determine the NO production, the medium was mixed with Griess reagent (0.04 g/mL, prepared in deionized water) in a 1:1 ratio. After 15 min, absorbance was recorded at 540 nm. To determine cell viability, the resazurin solution (0.03 mg/mL in PBS) was added to the cells. After 2 h of incubation, fluorescence was recorded (560/590 nm, ex./em.).
A multidrug resistant ovarian sub-line resistant to doxorubicin (A2780/DOX, Sigma-Aldrich) was cultivated in DMEM medium with 10% FBS and 1 × antibiotic antimycotic solution. Every other passage, doxorubicin at the final concentration of 0.1 µM was added to the culture medium to maintain the resistance of the cell line. To perform experiments, the cells were seeded at 1 × 10^5 cell/mL into the wells of a 96-well plate and incubated for 24 h. Afterwards, the cells were washed with PBS and fresh DMEM medium with tested compounds at 10, 20 and 30 µM were added to each well, except for the control wells. Subsequently, the cells were exposed to increasing concentrations of doxorubicin (0.6–20 µM) for 72 h. After incubation, the resazurin assay was performed as described above. The IC50 of doxorubicin was calculated for both the control and the samples and the fold change was counted up. […] The fold change lower than 1 means an antagonistic effect. (1) FOLD CHANGE=IC50 value of DOX cells treated with chemotherapeutic /IC50 value of DOX cells treated with chemotherapeutic and compound

A2780/DOX [2] = experiment: Sensitization of the MDR cell line to doxorubicin; format: cell-based, human; settings: Homo sapiens, no flavonolignan added, same value repeated in each column, read-out: IC50 of doxorubicin alone
[3] = system: nitric oxide (NO) production by LPS-stimulated macrophages (RAW 264.7); experiment: NO production by LPS-stimulated macrophages (Griess); format: cell-based, mouse; settings: Mus musculus, RAW264.7; RAW 264.7, LPS 1 µg/mL, 24 h; read-out: NO Production, concentration necessary to halve NO production (IC50)
Procedure: Immunomodulatory effect of tested compounds was determined as their ability to decrease nitric oxide (NO) production by LPS-stimulated macrophages (RAW 264.7, Sigma-Aldrich). Briefly, the cells were seeded into the 96-well plate at a density of 1 × 10^6 cells/mL in DMEM medium (supplemented with 2 mM L-glutamine and 1 × antibiotic antimycotic solution). After 48 h, the cells were washed with PBS. The MEM medium enriched with LPS (1 µg/mL) was added to the wells, together with the samples in the concentration range of 6.25–100 µM at a final volume of 100 µL. Indomethacin, a non-steroidal anti-inflammatory drug, was tested as a positive control in the concentration range 6.25–100 µM. After 24 h, the medium was used for the quantification of NO and inflammatory cytokines.
After 15 min, absorbance was recorded at 540 nm.

human recombinant P-gp = molecular target: T1, human recombinant P-gp (Homo sapiens, UniProt P08183); experiment: biochemical; settings: verapamil-stimulated P-gp ATPase, membrane fraction; read-out: P-gp, concentration necessary to halve ATP consumption (IC50)
T1 construct: purchased Promega
T1 sequence (P08183 whole entry): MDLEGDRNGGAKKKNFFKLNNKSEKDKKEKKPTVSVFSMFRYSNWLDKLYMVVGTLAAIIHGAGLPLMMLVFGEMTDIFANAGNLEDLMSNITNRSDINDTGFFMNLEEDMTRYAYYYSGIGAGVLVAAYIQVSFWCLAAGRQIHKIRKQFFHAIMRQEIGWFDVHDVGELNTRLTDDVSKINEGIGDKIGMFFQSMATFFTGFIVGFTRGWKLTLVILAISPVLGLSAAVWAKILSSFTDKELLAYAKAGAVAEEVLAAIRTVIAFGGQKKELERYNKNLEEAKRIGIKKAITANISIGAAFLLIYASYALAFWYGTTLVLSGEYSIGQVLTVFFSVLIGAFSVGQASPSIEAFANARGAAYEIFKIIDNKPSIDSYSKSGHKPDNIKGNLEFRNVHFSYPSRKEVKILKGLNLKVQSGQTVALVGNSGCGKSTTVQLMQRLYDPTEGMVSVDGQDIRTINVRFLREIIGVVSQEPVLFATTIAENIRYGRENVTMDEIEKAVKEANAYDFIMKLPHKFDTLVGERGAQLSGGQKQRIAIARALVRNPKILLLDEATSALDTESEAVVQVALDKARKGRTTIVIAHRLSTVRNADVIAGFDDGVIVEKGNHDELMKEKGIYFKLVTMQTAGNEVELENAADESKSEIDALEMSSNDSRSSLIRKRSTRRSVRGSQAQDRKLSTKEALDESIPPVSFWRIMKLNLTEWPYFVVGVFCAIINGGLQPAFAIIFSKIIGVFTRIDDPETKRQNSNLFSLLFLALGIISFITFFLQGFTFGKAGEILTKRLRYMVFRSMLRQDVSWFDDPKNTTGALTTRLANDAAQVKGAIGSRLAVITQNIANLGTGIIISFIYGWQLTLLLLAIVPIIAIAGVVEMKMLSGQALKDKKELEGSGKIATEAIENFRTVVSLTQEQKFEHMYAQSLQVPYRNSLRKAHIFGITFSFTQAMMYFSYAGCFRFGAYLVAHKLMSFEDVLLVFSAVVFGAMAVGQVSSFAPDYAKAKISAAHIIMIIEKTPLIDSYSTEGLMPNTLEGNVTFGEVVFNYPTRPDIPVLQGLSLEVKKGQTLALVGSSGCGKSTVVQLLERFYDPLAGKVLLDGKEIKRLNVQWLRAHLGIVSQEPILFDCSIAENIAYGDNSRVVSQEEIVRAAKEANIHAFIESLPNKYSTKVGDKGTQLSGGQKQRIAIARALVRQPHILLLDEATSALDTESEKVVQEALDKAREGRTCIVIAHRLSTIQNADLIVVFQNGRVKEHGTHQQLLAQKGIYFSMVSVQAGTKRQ
Procedure: The procedure and the dilution of the reagents were performed according to the manufacturer’s instructions. Briefly, the human recombinant P-gp-containing membrane (25 µg) was mixed in a 96-well plate with P-gp–Glo™ Assay buffer (control), verapamil (P-gp substrate, positive control, 0.2 mM), Na3VO4 (P-gp inhibitor, negative control, 0.1 mM), ATP standards (to construct the calibration curve, 0.375–3 mM) or samples (2.5 µL, in the concentration range 0.7–20 mM). After that, MgATP (5 mM) was added to total volume of 50 µL to each well to initiate the ATPase reaction. The plate was incubated for 1 h at 37 °C. Thereafter, the reaction was stopped by adding 50 µL of ATP detection reagent and incubated at room temperature for 20 min. The remaining non-metabolized ATP was detected as a luciferase-generated signal.
Using linear regression, the standard ATP curve was designed, and by subsequent interpolation of relative luminescence (RLU) of standards, the amount of ATP consumed in the samples was recalculated according to the manufacturer’s guidelines.

[4] = ORAC (oxygen radical absorption capacity) assay; settings: fluorescein/AAPH; read-out: ORAC, concentration necessary to halve the fluorescence response (IC50)
Procedure: Antioxidant capacity of samples was determined by ORAC (oxygen radical absorption capacity) and CAA (cellular antioxidant activity) assays. ORAC assay was realized by the previously described protocol. Briefly, 50 µL of the fluorescein solution (1.6 µg/mL in phosphate-buffered saline (PBS), pH 7.4) was added by a dispenser (MultiFlo Microplate Dispenser, BioTek Instrument, Winooski, VT, USA) into each well of a 96-well plate. Subsequently, 2 µL of tested compound in the concentration range 1.25–20 µM and 23 µL of PBS were added to the wells. The plate was incubated for 15 min at 37 °C and then 25 µL of AAPH (60 mg/mL) was added to each well. AAPH was replaced with PBS for the negative control. Immediately, the fluorescence was recorded by the microplate reader (SpectraMax i3 Multi-Mode Detection Platform, Molecular Devices, San Jose, CA, USA) for 2 h in 5 min steps (excitation/emission 485/535 nm).

HepG2 cells = experiment: CAA (cellular antioxidant activity) assay; format: cell-based; settings: Homo sapiens; HepG2, DCFH-DA/AAPH; read-out: CAA, concentration necessary to halve the fluorescence response (IC50)
Procedure: For the CAA assay, human hepatocellular carcinoma HepG2 cells (ATCC, Manassas, VA, USA) were seeded into a 96-well microplate at a density of 1 × 10^5 cells/well in EMEM medium supplemented with 10% of FBS, 2 mM L-glutamine and 1 × antibiotic antimycotic solution. The cells were maintained in a CO2 incubator (5% CO2, 37 °C, Memmert GmbH & Co, Büchenbach, Germany). The following day, the plates were washed with PBS and new fresh DMEM was added into each well supplemented with tested samples in the concentration range of 6.25–100 µM and fluorescent probe DCFH-DA (12.5 mg/L). After 1 h of incubation at 37 °C, the medium was replaced with AAPH solution (0.16 mg/mL in PBS), except for the negative control, where PBS was added instead. Directly, the fluorescence was recorded for 2 h in 5 min steps at 485/540 nm excitation/emission (ex./em.).

SMILES: COc1cccc2c1C(=O)c1c(O)c3c(c(O)c1C2=O)C[C@@](O)(C(=O)CO)C[C@@H]3O[C@H]1C[C@H](N)[C@H](O)[C@H](C)O1 [Doxorubicin, doxorubicin hydrochloride, reference compound]
IC25 (A2780/DOX [1]; A2780/DOX): 0.94 µM | IC50 (A2780/DOX [1]; Homo sapiens, A2780, read-out: IC50 (µM), concentration necessary to halve cell viability): 1.88 ± 0.07 µM | IC50 (A2780/DOX [2]): 1.88 ± 0.07 µM

IC50 [3]: 78.1 ± 7.5 µM
SMILES: COc1ccc2c(c1)c(CC(=O)O)c(C)n2C(=O)c1ccc(Cl)cc1 [Indomethacin, indomethacin, reference compound]

SMILES: [Na+].[Na+].[Na+].[O]=[V]([O-])([O-])[O-] [Orthovanadate, Sodium orthovanadate (Na3VO4), reference compound]
IC50 (human recombinant P-gp): 18.9 ± 1.8 µM

IC50 [4]: 6 ± 0.7 µM | IC50 (HepG2 cells): 5.4 ± 0.3 µM
SMILES: O=c1c(O)c(-c2ccc(O)c(O)c2)oc2cc(O)cc(O)c12 [Quercetin, quercetin, reference compound]
